Source: patent US9232796B2, “Herbicidal compositions comprising 4-amino-3-chloro-5-fluoro-6-(4-chloro-2-fluoro-3-methoxyphenyl) pyridine-2-carboxylic acid or a derivative thereof and acetyl-CoA carboxylase (ACCase) inhibitors” (DOW AGROSCIENCES LLC, priority 2012, dated 2016)
Values joined by “and” are separate entries in the source; they are usually repeats but may differ in a detail not shown here. Identical values can stand only once.

Key:
ISCRU = assay: Example I postemergence foliar-applied, greenhouse, direct seeded rice weeds; type: in vivo, Ischaemum rugosum Salisb.
Source text: Seeds or nutlets of the desired test plant species were planted in a soil matrix prepared by mixing a loam or sandy loam soil (e.g., 28.6 percent silt, 18.8 percent clay, and 52.6 percent sand, with a pH of about 5.8 and an organic matter content of about 1.8 percent) and calcareous grit in an 80 to 20 ratio. The soil matrix was contained in plastic pots with a volume of 1 quart and a surface area of 83.6 square centimeters (cm^2). When required to ensure good germination and healthy plants, a fungicide treatment and/or other chemical or physical treatment was applied. The plants were grown for 8-22 days in a greenhouse with an approximate 14 hr. photoperiod which was maintained at about 29° C. during the day and 26° C. during the night. Nutrients (Peters Excel® 15-5-15 5-Ca 2-Mg and iron chelate) were applied in the irrigation solution as needed and water was added on a regular basis. Supplemental lighting was provided with overhead metal halide 1000-Watt lamps as necessary. The plants were employed for testing when they reached the first through fourth true leaf stage.
Treatments consisted of the acid or esters of 4-amino-3-chloro-5-fluoro-6-(4-chloro-2-fluoro-3-methoxy-phenyl)pyridine-2-carboxylic acid (Compound A), each formulated as an SC (suspension concentrate), and various herbicidal components alone and in combination.
Other herbicidal components were applied on an acid equivalent (ae) or active ingredient (ai) basis and included acetyl coA carboxylase (ACCase)-inhibiting herbicides (cyclohexanedione and aryloxyphenoxypropionate chemical classes) cyhalofop-butyl formulated as Clincher® SF (285 gr ai/L EC), diclofop-methyl formulated as Hoelon® 3EC, fenoxaprop-p-ethyl+isoxadifen-ethyl formulated as RiceStar® HT (0.58 lb./gal EC), fenoxaprop-p-ethyl+mefenpyr diethyl formulated as Puma® IEC, metamifop formulated as Metamifop EC, haloxyfop-methyl formulated as Gallant Super®, fluazifop-p-butyl formulated as Fusilade® DX, quizalofop-p-ethyl formulated as Assure® II, profoxydim formulated as Aura® 20EC, clethodim applied as Intensity®, sethoxydim formulated as Poast®, and tralkoxydim formulated as Achieve®.
Treatment requirements were calculated based upon the rates being tested, the concentration of active ingredient or acid equivalent in the formulation, and a 12 mL application volume at a rate of 187 L/ha.
For treatments comprised of formulated compounds, measured amounts of compounds were placed individually in 25 mL glass vials and diluted in a volume of 1.25% (v/v) Agri-Dex® crop oil concentrated to obtain 12× stock solutions. […] Application solutions were prepared by adding an appropriate amount of each stock solution (e.g., 1 mL) and diluted to the appropriate final concentrations with the addition of 10 mL of an aqueous mixture of 1.25% (v/v) crop oil concentrate so that the final spray solutions contained 1.25+/−0.05% (v/v) crop oil concentrate.
All stock solutions and applications solutions were visually inspected for compound compatibility prior to application. […]
The treated plants and control plants were placed in a greenhouse as described above and watered by sub-irrigation to prevent wash-off of the test compounds. After approximately 3 weeks, the condition of the test plants as compared with that of the untreated plants was determined visually and scored on a scale of 0 to 100 percent where 0 corresponds to no injury or growth inhibition and 100 corresponds to complete kill. […]

SCPJU = assay: as above; type: in vivo, Schoenoplectus juncoides (Roxb.) Palla
Outline: (§1)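 Foliar spray, 187 L/ha, 1.25% (v/v) COC; plants at 1st–4th true leaf, greenhouse ~29/26 °C, 14 h light. Compound A acid/esters (SC) ± ACCase inhibitors, rates on ae/ai basis. Visual 0–100% injury vs untreated at ~3 wk; Colby expected values.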

CYPIR = assay: as above; type: in vivo, Cyperus iria L.
Outline: as §1

ECHCO = assay: Example V post-emergence field trials in direct-seeded rice; type: in vivo, Echinochloa colona; conditions: foliar, field trial Tolima, Colombia
Protocol: Multiple field trials were conducted under commercial grower field conditions in Tolima, Colombia; Thessaloniki, Greece; Bianze and Copiano, Italy; and Humphrey, Ark., USA. Trials sites were located in commercially grown fields of direct-seeded rice (Oryza sativa) using standard herbicide small plot research methodology. Plots varied from 2 to 3 meter (m)×5 to 8 m (width×length) with 4 replicates per treatment. The rice crop was grown using normal cultural practices for fertilization, seeding, watering, flooding and maintenance to ensure good growth of the crop and the weeds.
All treatments in the field trials were applied using a backpack compressed air/gas sprayer with flat fan nozzles (80° or 110°) calibrated to apply 187 to 300 L/ha spray volume at approximately 200-400 kPa nozzle pressure. Commercially available products of cyhalofop-butyl (Clincher 180EC, Clincher 200EC, and Clincher SF (285 gr ai/L EC)) were mixed in water at appropriate formulated product rates to achieve the desired rates based on a unit area of application (hectare) to achieve the desired rates as shown. Treatments were rate at 19 to 58 days after application (DAA) as compared to the untreated control plants. Visual weed control was scored on a scale of 0 to 100 percent where 0 corresponds to no injury and 100 corresponds to complete kill. […]

SCPMA = assay: Example VI in-water applied ternary mixtures, greenhouse, transplanted paddy rice weeds; type: in vivo, Schoenoplectus maritimus (L.) Lye
Protocol: Applications were made by injecting with a pipetter appropriate amounts of the application solutions, into the aqueous layer of the paddy. Control plants were treated in the same manner with the solvent blank. Applications were made so that all treated plant material received the same concentrations of acetone and crop oil concentrate.
The treated plants and control plants were placed in a greenhouse as described above and water was added as needed to maintain a paddy flood. After approximately 3 weeks the condition of the test plants as compared with that of the untreated plants was determined visually and scored on a scale of 0 to 100 percent where 0 corresponds to no injury or growth inhibition and 100 corresponds to complete kill.
Colby's equation was used to determine the herbicidal effects expected from the mixtures (Colby, S. R. 1967. Calculation of the synergistic and antagonistic response of herbicide combinations. Weeds 15:20-22.).
The following equation was used to calculate the expected activity of mixtures containing three active ingredients, A. B, and C: Expected=A+B+C−((A×B+A×C+B×C)/100)+(A×B×C/10000)

Compound: COc1c(Cl)ccc(-c2nc(C(=O)O)c(Cl)c(N)c2F)c1F [Compound A Acid, 4-amino-3-chloro-6-(4-chloro-2-fluoro-3-methoxyphenyl)-5-fluoropyridine-2-carboxylic acid]
- Visual Weed Control (%) - 26 DAA ISCRU Obs (ISCRU; 8.75 gae/ha): 37%
- Visual Weed Control (%) - 26 DAA ISCRU Obs (ISCRU; 17.5 gae/ha): 63%
- Visual Weed Control (%) - 20 DAA SCPJU Obs (SCPJU; 4.38 gae/ha): 60% and 70%
- Visual Weed Control (%) - 22 DAA SCPJU Obs (SCPJU; 4.38 gae/ha): 60%
- Visual Weed Control (%) - 20 DAA SCPJU Obs (SCPJU; 8.75 gae/ha): 95%
- Visual Weed Control (%) - 22 DAA CYPIR Obs (CYPIR; 4.38 gae/ha): 15%

Compound: COc1c(Cl)ccc(-c2nc(C(=O)OCc3ccccc3)c(Cl)c(N)c2F)c1F [Compound A Benzyl Ester, benzyl ester of 4-amino-3-chloro-5-fluoro-6-(4-chloro-2-fluoro-3-methoxy-phenyl)pyridine-2-carboxylic acid]
- Visual Weed Control (%) - 26 DAA ISCRU Obs (ISCRU; 8.75 gae/ha): 18%
- Visual Weed Control (%) - 26 DAA ISCRU Obs (ISCRU; 17.5 gae/ha): 33%
- Visual Weed Control (%) - 20 DAA SCPJU Obs (SCPJU; 4.38 gae/ha): 30%
- Visual Weed Control (%) - 20 DAA SCPJU Obs (SCPJU; 8 gae/ha): 70%
- Visual Weed Control (%) - 21 DAA SCPJU Obs (SCPJU; 8 gae/ha): 85%
- Visual Weed Control (%) - 20 DAA SCPJU Obs (SCPJU; 8.75 gae/ha): 60%
- Visual Weed Control (%) - 20 DAA SCPJU Obs (SCPJU; 16 gae/ha): 85%
- Visual Weed Control (%) - 20 DAA CYPIR Obs (CYPIR; 4.38 gae/ha): 15%
- Visual Weed Control (%) - 22 DAA CYPIR Obs (CYPIR; 8 gae/ha): 20%
- Visual Weed Control (%) - 20 DAA CYPIR Obs (CYPIR; 8.75 gae/ha): 35%
- Visual Weed Control (%) - 22 DAA CYPIR Obs (CYPIR; 16 gae/ha): 85%
- Visual Weed Control (%) - 22 DAA CYPIR Obs (CYPIR; 32 gae/ha): 100%
- Visual Weed Control (%) - 19 DAA ECHCO Obs (ECHCO; 12 gae/ha): 76%
- Visual Weed Control (%) - 24 DAA SCPMA Obs (SCPMA; 4 gae/ha): 0%
- Visual Weed Control (%) - 24 DAA SCPMA Obs (SCPMA; 8 gae/ha): 0%
- Visual Weed Control (%) - 24 DAA SCPMA Obs (SCPMA; 16 gae/ha): 0%

Compound: CCCCOC(=O)[C@@H](C)Oc1ccc(Oc2ccc(C#N)cc2F)cc1 [Cyhalofop-butyl, butyl(2R)-2-[4-(4-cyano-2-fluorophenoxy)phenoxy]propanoate, reference compound]
- Visual Weed Control (%) - 26 DAA ISCRU Obs (ISCRU; 140 gai/ha): 10%
- Visual Weed Control (%) - 19 DAA ECHCO Obs (ECHCO; 280 gai/ha): 0%
- Visual Weed Control (%) - 24 DAA SCPMA Obs (SCPMA; 180 gai/ha): 0%
